Calls of active or inactive are those of the source. No rule for the calls is given here.
What follows are compounds tested against Tyrosine-protein kinase JAK2 (Homo sapiens) (UniProt O60674) (assay: primary HTS for Janus kinase 2 inhibitors, biochemical, Homo sapiens, LANCE Ultra TR-FRET detection, NCGC Pharmaceutical Collection (AID 1117354)). Details: LANCE Ultra TR-FRET kinase assay, at 20 µM (top of the series).
Chain of Tyrosine-protein kinase JAK2 (Homo sapiens) (O60674 whole entry, looked up): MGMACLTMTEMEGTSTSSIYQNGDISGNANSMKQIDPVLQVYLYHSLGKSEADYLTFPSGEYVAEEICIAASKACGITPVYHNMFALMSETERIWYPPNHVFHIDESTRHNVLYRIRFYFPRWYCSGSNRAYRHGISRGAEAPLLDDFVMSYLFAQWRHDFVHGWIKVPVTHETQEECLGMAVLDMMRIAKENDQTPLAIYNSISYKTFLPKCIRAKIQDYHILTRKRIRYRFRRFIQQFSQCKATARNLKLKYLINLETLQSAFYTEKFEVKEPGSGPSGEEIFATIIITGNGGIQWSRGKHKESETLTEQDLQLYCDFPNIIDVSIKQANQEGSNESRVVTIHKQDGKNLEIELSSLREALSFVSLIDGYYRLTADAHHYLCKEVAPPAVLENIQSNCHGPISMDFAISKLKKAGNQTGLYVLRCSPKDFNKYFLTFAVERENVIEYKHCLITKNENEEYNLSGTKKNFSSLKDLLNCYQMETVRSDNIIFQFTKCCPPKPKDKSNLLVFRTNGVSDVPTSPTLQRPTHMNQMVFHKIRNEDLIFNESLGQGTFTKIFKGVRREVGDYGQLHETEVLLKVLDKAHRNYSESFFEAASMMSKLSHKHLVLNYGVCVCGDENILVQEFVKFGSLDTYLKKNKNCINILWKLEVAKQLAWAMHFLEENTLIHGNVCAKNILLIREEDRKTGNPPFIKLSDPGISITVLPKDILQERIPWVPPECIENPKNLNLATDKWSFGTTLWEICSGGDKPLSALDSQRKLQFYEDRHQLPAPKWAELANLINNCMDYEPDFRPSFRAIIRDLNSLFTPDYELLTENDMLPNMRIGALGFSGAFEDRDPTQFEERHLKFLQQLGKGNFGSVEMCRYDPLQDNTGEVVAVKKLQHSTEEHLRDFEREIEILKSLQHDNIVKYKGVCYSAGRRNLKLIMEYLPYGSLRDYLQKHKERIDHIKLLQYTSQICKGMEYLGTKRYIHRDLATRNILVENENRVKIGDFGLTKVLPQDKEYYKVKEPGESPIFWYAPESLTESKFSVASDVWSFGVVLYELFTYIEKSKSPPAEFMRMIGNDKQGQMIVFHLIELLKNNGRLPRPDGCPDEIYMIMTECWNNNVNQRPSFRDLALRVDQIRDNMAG
In the case of `COc1cc([C@@H]2c3cc4c(cc3[C@H](O)[C@H]3COC(=O)[C@H]23)OCO4)cc(OC)c1OC`, the inhibition is reported as 7.37% (inactive). For `Cc1ccc2nc(N)[nH]c(=O)c2c1Sc1ccncc1`, the inhibition was 16.7% (inactive). In the case of `Cc1cc(O)c2ccccc2c1O`, the inhibition is reported as 19.2% (inactive). For `O=C(CCCCCCC(=O)Nc1ccccc1)NO`, the inhibition was -17.1% (inactive). For `Cc1cc2c(C(C)C)c(O)c(O)c(C=O)c2c(O)c1-c1c(C)cc2c(C(C)C)c(O)c(O)c(C=O)c2c1O`, the inhibition was -0.85% (inactive). `O=C(NOCC1CC1)c1ccc(F)c(F)c1Nc1ccc(I)cc1Cl` was tested, and the inhibition was 13.2% (inactive). In the case of `Cc1cc(C2CCCCC2)n(O)c(=O)c1`, the inhibition is reported as -9.21% (inactive). `CCN(CC)CCOc1ccc(/C(=C(\Cl)c2ccccc2)c2ccccc2)cc1` was tested, and the inhibition was -4.05% (inactive). `Cc1nc2ccc(CN(C)c3ccc(C(=O)N[C@@H](CCC(=O)O)C(=O)O)s3)cc2c(=O)[nH]1` was tested, and the inhibition was 14.6% (inactive). With `CC[C@]1(O)C[C@@H]2CN(CCc3c([nH]c4ccccc34)[C@@](C(=O)OC)(c3cc4c(cc3OC)N(C)[C@H]3[C@@](O)(C(=O)OC)[C@H](OC(C)=O)[C@]5(CC)C=CCN6CC[C@]43[C@@H]65)C2)C1` the inhibition was 5.49% (inactive). In the case of `COc1cc(NCc2ccc3nc(N)nc(N)c3c2C)cc(OC)c1OC`, the inhibition is reported as 26.2% (inactive). For `CCc1nc(N)nc(N)c1-c1ccc(Cl)cc1`, the inhibition was -6.66% (inactive). `C=CC(=O)Nc1cc2c(Nc3ccc(F)c(Cl)c3)ncnc2cc1OCCCN1CCOCC1` gave an inhibition of 68.2%. `COc1cc2c(c(OC)c1OC)-c1ccc(OC)c(=O)cc1[C@@H](NC(C)=O)CC2` was tested, and the inhibition was -10.4% (inactive). With `CC[C@@H]([C@H](C)O)n1ncn(-c2ccc(N3CCN(c4ccc(OC[C@@H]5CO[C@@](Cn6cncn6)(c6ccc(F)cc6F)C5)cc4)CC3)cc2)c1=O` the inhibition was 10.5% (inactive). With `COC(=O)Nc1nc2ccc(C(=O)c3ccccc3)cc2[nH]1` the inhibition was 25.8% (inactive). In the case of `Cc1ccc([N+](=O)[O-])[c]2c1[O][Hg]2`, the inhibition is reported as 36.9% (inactive). In the case of `COC(=O)Nc1nc2ccc(S(=O)c3ccccc3)cc2[nH]1` (stereo not drawn), the inhibition is reported as -7.42% (inactive). Compound `CNC(=O)c1ccccc1Sc1ccc2c(/C=C/c3ccccn3)n[nH]c2c1` has an inhibition of 94.5%. In the case of `Cc1ccc(Nc2nccc(N(C)c3ccc4c(C)n(C)nc4c3)n2)cc1S(N)(=O)=O`, the inhibition is reported as 81.8%. In the case of `O=C(CCl)c1ccc(Cl)cc1Cl`, the inhibition is reported as -17.1% (inactive). For `COc1cc2nc(N3CCN(C(=O)c4ccco4)CC3)nc(N)c2cc1OC`, the inhibition was -17.8% (inactive). For `COCc1c(C(C)C)nc(C(C)C)c(/C=C/[C@@H](O)C[C@@H](O)CC(=O)O)c1-c1ccc(F)cc1`, the inhibition was -8.56% (inactive). In the case of `O=c1[nH]c(=O)n([C@H]2C[C@H](O)[C@@H](CO)O2)cc1C(F)(F)F`, the inhibition is reported as 14.7% (inactive). For `Oc1c(I)cc(I)c2cccnc12`, the inhibition was -10.5% (inactive). With `CN(C)c1ccc2nc3ccc(=[N+](C)C)cc-3sc2c1` the inhibition was 13.3% (inactive). In the case of `COC(=O)Nc1nc2ccc(C(=O)C3CC3)cc2[nH]1`, the inhibition is reported as 21.4% (inactive). For `COC(=O)Nc1nc2ccc(C(=O)c3cccs3)cc2[nH]1`, the inhibition was 12.9% (inactive). With `CC(C)(C)C(=O)OCOP(=O)(COCCn1cnc2c(N)ncnc21)OCOC(=O)C(C)(C)C` the inhibition was -9.81% (inactive). `CC(=O)[C@]1(O)Cc2c(O)c3c(c(O)c2[C@@H](O[C@H]2C[C@H](N)[C@H](O)[C@H](C)O2)C1)C(=O)c1ccccc1C3=O` was tested, and the inhibition was 29.1% (inactive). For `CCC(C)n1ncn(-c2ccc(N3CCN(c4ccc(OC[C@H]5CO[C@](Cn6cncn6)(c6ccc(Cl)cc6Cl)O5)cc4)CC3)cc2)c1=O` (stereo partly drawn), the inhibition was 10.5% (inactive). In the case of `CCN(CC)CCNC(=O)c1c(C)[nH]c(/C=C2\C(=O)Nc3ccc(F)cc32)c1C`, the inhibition is reported as 97.3%. In the case of `COc1c(C)c2c(c(O)c1C/C=C(\C)CCC(=O)OCCN1CCOCC1)C(=O)OC2`, the inhibition is reported as 8.22% (inactive). For `O=[N+]([O-])c1ccc(O)c2ncccc12`, the inhibition was 1.93% (inactive). For `Cc1cc(=O)c2c(O)c3c(O)cc(=O)c4c3c3c(cc(O)c1c23)C(C)(C)C=4O`, the inhibition was 32.9% (inactive). With `Oc1c(Cl)cc(Cl)c2cccnc12` the inhibition was -13.9% (inactive). `CCN(CC)CCNc1ccc(CO)c2sc3ccccc3c(=O)c12` was tested, and the inhibition was 33.1% (inactive). In the case of `COc1ccc(-c2ccc3cc(C(=O)O)ccc3c2)cc1C12CC3CC(CC(C3)C1)C2`, the inhibition is reported as 97.7%. In the case of `COc1cc(-c2ccc(=O)[nH]n2)ccc1OC(F)F`, the inhibition is reported as -10.1% (inactive). For `CCCCCCCCCCCCCC[N+](C)(C)C`, the inhibition was -1.09% (inactive). For `CCCCCCCCCCCCCCCC[n+]1ccccc1`, the inhibition was 53.6%. With `C[n+]1c2cc(N)ccc2cc2ccc(N)cc21` (tested in a mixture with another compound) the inhibition was 8.06% (inactive). In the case of `CCC1=C[C@@H]2CN(C1)Cc1c([nH]c3ccccc13)[C@@](C(=O)OC)(c1cc3c(cc1OC)N(C)[C@H]1[C@@](O)(C(=O)OC)[C@H](OC(C)=O)[C@]4(CC)C=CCN5CC[C@]31[C@@H]54)C2`, the inhibition is reported as 1.76% (inactive). In the case of `COC(=O)[C@H]1[C@H]2C[C@@H]3c4[nH]c5cc(OC)ccc5c4CCN3C[C@H]2C[C@@H](OC(=O)/C=C/c2ccc(O)c(OC)c2)[C@@H]1OC`, the inhibition is reported as 9.23% (inactive). For `CCCCc1oc2ccccc2c1C(=O)c1cc(I)c(OCCN(CC)CC)c(I)c1`, the inhibition was 16.2% (inactive). For `CSc1ccc2c(c1)C(N1CCN(C)CC1)Cc1ccccc1S2` (stereo not drawn), the inhibition was -4.22% (inactive). With `O=c1[nH]c(=O)n([C@H]2C[C@H](O)[C@@H](CO)O2)cc1F` the inhibition was -18.6% (inactive). In the case of `[O-][n+]1ccccc1SSc1cccc[n+]1[O-]`, the inhibition is reported as -17.3% (inactive). `Cc1nc(Nc2ncc(C(=O)Nc3c(C)cccc3Cl)s2)cc(N2CCN(CCO)CC2)n1` gave an inhibition of 98.4%. For `CNC(=O)c1cc(Oc2ccc(NC(=O)Nc3ccc(Cl)c(C(F)(F)F)c3)cc2)ccn1`, the inhibition was 63.2%. For `CN1CC[C@H](c2c(O)cc(O)c3c(=O)cc(-c4ccccc4Cl)oc23)[C@H](O)C1`, the inhibition was 67.4%. For `CCCN(CCC)C(=O)C(CCC(=O)OCCCN1CCN(CCOC(=O)Cc2c(C)n(C(=O)c3ccc(Cl)cc3)c3ccc(OC)cc23)CC1)NC(=O)c1ccccc1` (stereo not drawn), the inhibition was 12.5% (inactive). For `Cc1cc(C)c(/C=C2\C(=O)Nc3ccccc32)[nH]1`, the inhibition was 68.5%. For `CCCCCCCCCCCCCCCCCCNC(=O)OC1CCN(C(=O)OC[C@H](COC(=O)N(Cc2cccc[n+]2CC)C(=O)c2ccccc2OC)OC)CC1`, the inhibition was -2.67% (inactive). In the case of `O=C(Nc1ccc([N+](=O)[O-])cc1Cl)c1cc(Cl)ccc1O`, the inhibition is reported as 16.5% (inactive). For `C=C(C)[C@H]1Cc2c(ccc3c2O[C@@H]2COc4cc(OC)c(OC)cc4[C@@H]2C3=O)O1`, the inhibition was 4.93% (inactive). `S=c1nc[nH]c2nc[nH]c12` was tested, and the inhibition was 1.43% (inactive). `CC(C)C[C@H](NC(=O)[C@H](Cc1ccccc1)NC(=O)c1cnccn1)B(O)O` was tested, and the inhibition was -3.33% (inactive). With `Cc1nc(N)nc(N)c1-c1ccc(Cl)c(Cl)c1` the inhibition was -2.13% (inactive). In the case of `NC(=NCCCCCCN=C(N)/N=C(\N)Nc1ccc(Cl)cc1)/N=C(\N)Nc1ccc(Cl)cc1`, the inhibition is reported as 0.31% (inactive). `O=C1c2c(O)ccc(O)c2C(=O)c2c(NCCNCCO)ccc(NCCNCCO)c21` was tested, and the inhibition was 43.4% (inactive). With `COc1ccc(-c2nc3ccc(C4=NNC(=O)CC4C)cc3[nH]2)cc1` (stereo not drawn) the inhibition was -0.61% (inactive). In the case of `COC(=O)c1nc(Cl)c(Cl)nc1N`, the inhibition is reported as -6.75% (inactive). With `CC(C)C[C@H](NC(=O)[C@H](CCc1ccccc1)NC(=O)CN1CCOCC1)C(=O)N[C@@H](Cc1ccccc1)C(=O)N[C@@H](CC(C)C)C(=O)[C@@]1(C)CO1` the inhibition was 5.34% (inactive). With `CC(C)(C)C1CCC(CC2=C(O)c3ccccc3C(=O)C2=O)CC1` (stereo not drawn) the inhibition was -11.2% (inactive). In the case of `Nc1ccc2cc3ccc(N)cc3nc2c1`, the inhibition is reported as -6.54% (inactive). `COc1cccc2c1C(=O)c1c(O)c3c(c(O)c1C2=O)C[C@@](O)(C(C)=O)C[C@@H]3O[C@H]1C[C@H](N)[C@H](O)[C@H](C)O1` was tested, and the inhibition was 7.94% (inactive). In the case of `Nc1nc(=S)c2[nH]cnc2[nH]1`, the inhibition is reported as 10.3% (inactive). With `O=C(O)c1ccc(-n2nc(-c3ccccc3O)nc2-c2ccccc2O)cc1` the inhibition was 44.5% (inactive). With `O=c1c(-c2ccccc2)c1-c1ccccc1` the inhibition was -9.18% (inactive). `COC(=O)Nc1nc2ccc(Sc3ccccc3)cc2[nH]1` was tested, and the inhibition was -7.45% (inactive). `Cn1cnc([N+](=O)[O-])c1Sc1ncnc2nc[nH]c12` was tested, and the inhibition was -15.7% (inactive). For `Oc1c(Cl)cc(Cl)cc1Sc1cc(Cl)cc(Cl)c1O`, the inhibition was -0.83% (inactive). With `CC[C@]1(O)C[C@H]2CN(CCc3c([nH]c4ccccc34)[C@@](C(=O)OC)(c3cc4c(cc3OC)N(C=O)[C@H]3[C@@](O)(C(=O)OC)[C@H](OC(C)=O)[C@]5(CC)C=CCN6CC[C@]43[C@@H]65)C2)C1` the inhibition was 9% (inactive). `CCCCCCNC(=O)n1cc(F)c(=O)[nH]c1=O` was tested, and the inhibition was -3.52% (inactive). For `CCCSc1ccc2nc(NC(=O)OC)[nH]c2c1`, the inhibition was -0.03% (inactive). With `CC(=O)Oc1ccc(C2(c3ccc(OC(C)=O)cc3)Oc3ccccc3NC2=O)cc1` the inhibition was 7% (inactive). `CCCCC1C(=O)N(c2ccccc2)N(c2ccc(O)cc2)C1=O` (stereo not drawn) was tested, and the inhibition was -4.57% (inactive). In the case of `Cc1ccccc1C(=O)Nc1ccc(C(=O)N2CCCC(N(C)C)c3ccccc32)cc1` (stereo not drawn), the inhibition is reported as 16% (inactive). `CC[C@@]1(O)C(=O)OCc2c1cc1n(c2=O)Cc2c-1nc1ccccc1c2/C=N/OC(C)(C)C` was tested, and the inhibition was 12.1% (inactive). `CCCOc1ccc2nc(NC(=O)OC)[nH]c2c1` was tested, and the inhibition was -4.4% (inactive). For `COc1ccc2cc1Oc1ccc(cc1)C[C@H]1c3c(cc4c(c3Oc3cc5c(cc3OC)CCN(C)[C@@H]5C2)OCO4)CCN1C`, the inhibition was 17.9% (inactive). In the case of `C[C@@]12C(=O)OC(=O)[C@]1(C)C1CCC2O1`, the inhibition is reported as -0.89% (inactive).

— PubChem BioAssay AID1117354 (Cheminformatics & Chemogenomics Research Group (CCRG), …, 2015)
